Measurements as given in patent US20130261045A1, “GREEN TEA POLYPHENOL ALPHA SECRETASE ENHANCERS AND METHODS OF USE” (UNIVERSITY OF SOUTH FLORIDA, priority 2005, published 2013).

Columns and labels:
transgenic APPsw mice [1] = experiment: EGCG ICV injection of transgenic APPsw mice (cerebral Aβ, α-secretase activity); format: in vivo; conditions: ICV 10 μg/mouse once; 24 hours
Method: Cultured cells and mouse brain were lysed in ice-cold lysis buffer described above, and an aliquot corresponding to 50 μg of total protein was electrophoretically separated using 16.5% Tris-tricine gels. Electrophoresed proteins were then transferred to PVDF membranes (Bio-Rad), washed in dH2O, and blocked for 1 hour at ambient temperature in Tris-buffered saline (TBS; Bio-Rad) containing 5% (w/v) for non-fat dry milk. […] Densitometric analysis was done using the Fluor-S Multimager™ with Quantity One™ software (Bio-Rad). […] Antibodies used for Western blot included antibody 369 (1:1,000), anti-C-terminal APP antibody (1:500; Chemicon, Temecula, Calif.), BAM-10 (1:1,000; Sigma), 6E10 (1:1,000; Signet) or anti-Actin antibody (1:1,500; as an internal reference control; Roche). α-, β- and γ-secretase activities were quantified in cell lysates and mouse brain homogenates using available kits based on secretase-specific peptides conjugated to fluorogenic receptor molecules (R&D Systems, Minneapolis, Minn.). […]

[2] = system: TNF-a converting enzyme (TACE); experiment: Western blot of TACE in APP-transfected N2a cells; format: cell-based, murine; conditions: in 3 to 4 hours following EGCG treatment, then rapidly cleaved through 8 hours
Method: Cell cultured supernatants were collected and cell lysates were prepared from these cultured cells.
Cultured cells and mouse brain were lysed in ice-cold lysis buffer described above, and an aliquot corresponding to 50 μg of total protein was electrophoretically separated using 16.5% Tris-tricine gels. Electrophoresed proteins were then transferred to PVDF membranes (Bio-Rad), washed in dH2O, and blocked for 1 hour at ambient temperature in Tris-buffered saline (TBS; Bio-Rad) containing 5% (w/v) for non-fat dry milk. After blocking, membranes were hybridized for 1 hour at ambient temperature with various antibodies, including against the C- (369), N-terminus of APP (22C11), the N-terminus of Aβ (6E10), and ADAM10 and TACE (Calbiochem). […] Densitometric analysis was done using the Fluor-S Multimager™ with Quantity One™ software (Bio-Rad). […] Antibodies used for Western blot included antibody 369 (1:1,000), anti-C-terminal APP antibody (1:500; Chemicon, Temecula, Calif.), BAM-10 (1:1,000; Sigma), 6E10 (1:1,000; Signet) or anti-Actin antibody (1:1,500; as an internal reference control; Roche). α-, β- and γ-secretase activities were quantified in cell lysates and mouse brain homogenates using available kits based on secretase-specific peptides conjugated to fluorogenic receptor molecules (R&D Systems, Minneapolis, Minn.).

transgenic APPsw mice [3] = experiment: EGCG IP treatment of transgenic APPsw mice (brain Aβ, APP fragments, secretase activity, plaques); format: in vivo, mouse
Method: Soluble Aβ (FIG. 4B) and insoluble Aβ prepared with 5 M guanidine (FIG. 4C) were analyzed by ELISA. Data are represented as mean+/−SEM of Aβ (pg/mg protein). […] (FIG. 4D) α-, β- and γ-secretase cleavage activities were analyzed by secretase cleavage activity kits. Data are presented as mean+/−SEM of fluorescence units/mg protein. […] (FIG. 4E) Mouse brain paraffin sections stained with anti-human Aβ antibody (4G8); left control PBS-treated mice. […] Top, cingulated cortex (CC); Middle, hippocampus (H); Bottom, entorhinal cortex (EC). […] (FIG. 4F) illustrates bar graphs comparing the Aβ burden (%) for transgenic APPsw mice treated with two different compounds.
Cultured cells were lysed in ice-cold-lysis buffer (20 mM Tris, pH 7.5, 150 mM NaCl, 1 mM EDTA, 1 mM EGTA, 1% v/v Triton X-100, 2.5 mM sodium pyropgosphate, 1 mM β-glycerolphosphate, 1 mM Na3VO4, 1 μg/mL leupeptin, 1 mM PMSF) as previously described (Tan et al., 2002). Mouse brains were isolated under sterile conditions on ice and placed in ice-cold lysis buffer. Brains were then sonicated on ice for approximately 3 min, allowed to stand for 15 min at 4° C., and centrifuged at 15,000 rpm for 15 min. Total Aβ1-42 species were detected by acid extraction of brain homogenates in 5 M guanidine buffer (ret), followed by a 1:10 dilution in lysis buffer. Soluble Aβ1-42 was directly detected in cultured cell lysates or brain homogenates prepared with lysis buffer described above by a 1:4 or 1:10 dilution, respectively. Aβ1-42 was quantified in these samples using the Aβ1-42 ELISA kit (BioSource, Camarillo, Calif.) in accordance with the manufacturer's instructions, except that standards included a 0.5 M guanidine buffer.
Cultured cells and mouse brain were lysed in ice-cold lysis buffer described above, and an aliquot corresponding to 50 μg of total protein was electrophoretically separated using 16.5% Tris-tricine gels. Electrophoresed proteins were then transferred to PVDF membranes (Bio-Rad), washed in dH2O, and blocked for 1 hour at ambient temperature in Tris-buffered saline (TBS; Bio-Rad) containing 5% (w/v) for non-fat dry milk. After blocking, membranes were hybridized for 1 hour at ambient temperature with various antibodies, including against the C- (369), N-terminus of APP (22C11), the N-terminus of Aβ (6E10), and ADAM10 and TACE (Calbiochem). Membranes were then washed 3× for 5 min each in dH2O and incubated for 1 hour at ambient temperature with the appropriate HRP-conjugated secondary antibody (1:1,000, Pierce Biotechnology, Inc. Rockford, Ill.). All antibodies were diluted in TBS containing 5% (w/v) of non-fat dry milk. Blots were developed using the luminal reagent (Pierce Biotechnology). Densitometric analysis was done using the Fluor-S Multimager™ with Quantity One™ software (Bio-Rad). Immunoprecipitation was performed for detection of sAPP-α, sAPP-β and Aβ by incubating 200 μg of total protein of each sample with 6E10 (1:100; Signet) or 22C11 (1:100; Roche, Basel, Switzerland) overnight with gentle rocking at 4° C., and 10 μL of 50% protein A-Sepharose beads were then added to the sample (1:10; Sigma) prior to gentle rocking for an additional 4 hours at 4° C. Following washes with 1× cell lysis buffer, samples were subjected to Western blot as described above. Antibodies used for Western blot included antibody 369 (1:1,000), anti-C-terminal APP antibody (1:500; Chemicon, Temecula, Calif.), BAM-10 (1:1,000; Sigma), 6E10 (1:1,000; Signet) or anti-Actin antibody (1:1,500; as an internal reference control; Roche). α-, β- and γ-secretase activities were quantified in cell lysates and mouse brain homogenates using available kits based on secretase-specific peptides conjugated to fluorogenic receptor molecules (R&D Systems, Minneapolis, Minn.).

ADAM10 = experiment: Western blot of ADAM10 maturation in SweAPP N2a cells; format: cell-based, murine
Method: Cultured cells were lysed in ice-cold lysis buffer described above, and an aliquot corresponding to 50 μg of total protein was electrophoretically separated using 16.5% Tris-tricine gels. Electrophoresed proteins were then transferred to PVDF membranes (Bio-Rad, Richmond, Calif.), washed in ddH2O, and blocked for 1 h at ambient temperature in Tris-buffered saline (TBS; Bio-Rad) containing 5% (w/v) non-fat dry milk. After blocking, membranes were hybridized for 1 h at ambient temperature with various primary antibodies. Membranes were then washed 3 times for 5 min each in ddH2O and incubated for 1 h at ambient temperature with the appropriate HRP-conjugated secondary antibody (1:1,000, Pierce Biotechnology, Inc. Rockford, Ill.). All antibodies were diluted in TBS containing 5% (w/v) of non-fat dry milk. Blots were developed using the luminol reagent (Pierce Biotechnology). Densitometric analysis was done using the Fluor-S MultiImager™ with Quantity One™ software (Bio-Rad). For examining sAPP-α, conditioned medium was collected following treatment according to a modified protocol from Chen and Fernandez (Chen et al., 2004). sAPP-α was extracted using 3K Nanosep centrifugal filters (Pall Life Sciences, Ann Arbor, Mich.) and protein concentrate was prepared for the aforementioned electrophoresis. […]

[4] = IP 20 mg/kg daily for 60 days, ELISA

## O=C(O[C@@H]1Cc2c(O)cc(O)cc2O[C@@H]1c1cc(O)c(O)c(O)c1)c1cc(O)c(O)c(O)c1 [EGCG, (−)-epigallocatechin-3-gallate]
Transgenic APPsw mice [1]
  elevation of α-secretase cleavage activity in brain: 32%
  reduction of cerebral soluble Aβ levels: 39%
  α-secretase cleavage activity in brain (mean ± s.e.m.): 890.29±104.41 fluorescence units/mg of total protein
[2]
  TACE expression: significantly increased
Transgenic APPsw mice [3]; IP 20 mg/kg daily for 60 days
  elevation of α-secretase cleavage activity in brain: 28%
  sAPP-α in brain versus PBS: markedly increased
  α-CTF in brain versus PBS: markedly increased
Transgenic APPsw mice [3]; [4]
  reduction of soluble Aβ1-42 level in brain: ~50%
  reduction of total Aβ1-42 level in brain: ~25%
Transgenic APPsw mice [3]; IP, 14 months of age, across the three brain regions examined
  reduction of 4G8 immunoreactive and thioflavin S positive Aβ deposits: 32-36%
Transgenic APPsw mice [3]; IP, ELISA, FIG. 4C
  decrease of insoluble 5 M guanidine-prepared Aβ levels: approximately 26%
Transgenic APPsw mice [3]; in vivo, FIG. 4d
  activity of β-secretase cleavage in brain: not decreases
ADAM10; 20 μM, as early as 30 min, continued to increase through 120 min
  mature ADAM10, temporal analysis: significant increases
ADAM10; various doses of EGCG, 8 h
  mature ADAM10 (~60 kDa isoform) protein level: dose-dependently increased
